Measured values published in patent EP4572800B1, “TETRAZINES WITH IMPROVED PROPERTIES” (Tagworks Pharmaceuticals B.V., priority 2023, dated 2024).

Columns and labels:
cyclooxygenase (COX-1) = cyclooxygenase (COX-1) (Homo sapiens, UniProt P23219); assay: Enzyme inhibition study, COX-1; format: biochemical, humans; details: for % COX-1 inhibition: final concentration of tetrazine 10 µM, human COX-1
Description: (§1) In this Example, the inhibition of several physiologically relevant target proteins (viz. enzymes and a transporter) by tetrazines were tested in vitro. The enzymes tested were cyclooxygenase (COX-1), acetyl cholinesterase (ACES), and monoamine oxidase (MAO-B), and the tested transporter was calcium channel L-type, dihydropyridine. COX-1, ACES, and MAO-B from humans was used, while calcium channel L-type, dihydropyridine from rats was used. Standard literature protocols were used, and relevant controls were included to ensure the validity of the results. The target proteins were mixed with tetrazine 2.1 (reference), 2.4, 2.5, 2.7, or 2.10 (final concentration of tetrazine 10 µM) in appropriate buffers. The final concentrations for the respective target proteins depended on the standard protocol used, but for each individual target protein this concentration was the same for the different tetrazines tested. After an appropriate incubation time at an appropriate temperature, the enzymatic activity of the enzyme or the ligand binding in case of the transporter was tested in accordance with standard procedures from literature. From this remaining enzymatic activity or ligand binding, the percentage of inhibition was determined.

[1] = Maximum tolerated dose (MTD) study in mice, single intravenous dose; format: in vivo; details: both sexes, Swiss albino, mouse, in vivo, iv, mice, single intravenous dose, observed up to 72 hours post-dose
Description: (§2) In this Example, groups of Swiss albino mice (an equal number of male and female animals) were subjected to a single dose of tetrazine 2.1 (reference), 2.4, 2.5, 2.7, or 2.10. Different groups were used for different doses. […] Control groups were also used, wherein mice were only administered vehicle (phosphate-buffered saline (PBS) pH 7.4) without tetrazine ("vehicle control").
(§3) Mice were treated in line with ethical guidelines. […] Environmental controls for the animal room were set to maintain a temperature of 22 to 25°C, humidity of 30-70% RH, and a 12-h light/12-h dark cycle.
(§4) The dose formulations were prepared as follows. Tetrazine 2.1 (reference), 2.4, 2.5, 2.7, or 2.10 was dissolved in PBS pH 7.4 to prepare separate stock solutions of each tetrazine. […] Further dilutions of the tetrazine stock solutions were done with PBS pH 7.4 to achieve a desired concentration.
(§5) Mice were dosed on day 1 by intravenously administering the dose formulation (expressed in µmol of tetrazine per kg body weight of the mouse). Thereafter, the mice were observed up to 72 hours post-dose for any signs of mortality. The number of dead mice after 72 hours ("mortality") was then divided by the original number of mice.

Swiss albino mice = assay: as above; format: in vivo; details: 72 hours
Description: as §2, §3, §4, §5

[2] = system: calcium channel L-type, dihydropyridine; assay: Transporter ligand binding inhibition, calcium channel L-type; set-up: species or system rats; details: for % Calcium channel L-type dihydropyridine inhibition: final concentration of tetrazine 10 µM, rat, ligand binding
Description: as §1

[3] = target: acetyl cholinesterase (ACES) (Homo sapiens, UniProt P22303); assay: Enzyme inhibition study, ACES; format: biochemical, humans; details: for % ACES inhibition: final concentration of tetrazine 10 µM, human ACES
Description: as §1

[4] = target: T1, monoamine oxidase (MAO-B) (Homo sapiens, UniProt P27338); assay: Enzyme inhibition study, MAO-B; format: biochemical, humans; details: for % MAO-B inhibition: final concentration of tetrazine 10 µM, human MAO-B
T1 sequence (P27338 1-520): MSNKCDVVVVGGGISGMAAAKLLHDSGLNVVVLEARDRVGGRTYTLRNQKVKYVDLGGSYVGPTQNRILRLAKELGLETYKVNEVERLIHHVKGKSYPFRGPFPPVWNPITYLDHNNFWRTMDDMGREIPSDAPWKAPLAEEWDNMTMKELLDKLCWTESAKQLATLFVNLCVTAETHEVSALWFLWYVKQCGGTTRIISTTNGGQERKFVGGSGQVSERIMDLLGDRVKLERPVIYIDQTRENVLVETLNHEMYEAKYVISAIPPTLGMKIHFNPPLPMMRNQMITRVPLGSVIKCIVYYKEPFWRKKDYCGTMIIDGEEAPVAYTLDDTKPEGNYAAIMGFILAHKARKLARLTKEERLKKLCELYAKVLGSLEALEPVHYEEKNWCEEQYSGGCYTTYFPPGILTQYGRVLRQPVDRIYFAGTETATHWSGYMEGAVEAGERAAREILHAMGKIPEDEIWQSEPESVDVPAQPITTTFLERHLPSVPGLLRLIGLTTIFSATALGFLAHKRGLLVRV
Description: as §1

Chain of cyclooxygenase (COX-1) (P23219 24-599): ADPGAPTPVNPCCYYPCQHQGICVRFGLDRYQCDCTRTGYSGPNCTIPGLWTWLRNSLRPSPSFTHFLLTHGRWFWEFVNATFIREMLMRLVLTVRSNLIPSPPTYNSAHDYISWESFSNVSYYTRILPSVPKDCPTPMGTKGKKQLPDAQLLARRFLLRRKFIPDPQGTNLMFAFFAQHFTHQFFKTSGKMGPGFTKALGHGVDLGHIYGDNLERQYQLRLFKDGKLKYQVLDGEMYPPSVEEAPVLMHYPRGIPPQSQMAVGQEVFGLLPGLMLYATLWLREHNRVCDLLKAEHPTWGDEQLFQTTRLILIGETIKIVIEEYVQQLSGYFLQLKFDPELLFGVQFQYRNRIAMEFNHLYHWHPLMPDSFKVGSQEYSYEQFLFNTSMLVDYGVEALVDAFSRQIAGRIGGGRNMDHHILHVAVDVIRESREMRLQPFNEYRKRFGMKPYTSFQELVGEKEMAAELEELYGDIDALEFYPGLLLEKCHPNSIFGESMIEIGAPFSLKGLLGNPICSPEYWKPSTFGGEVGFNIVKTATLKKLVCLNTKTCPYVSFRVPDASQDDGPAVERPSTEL
Chain of acetyl cholinesterase (ACES) (P22303 32-614): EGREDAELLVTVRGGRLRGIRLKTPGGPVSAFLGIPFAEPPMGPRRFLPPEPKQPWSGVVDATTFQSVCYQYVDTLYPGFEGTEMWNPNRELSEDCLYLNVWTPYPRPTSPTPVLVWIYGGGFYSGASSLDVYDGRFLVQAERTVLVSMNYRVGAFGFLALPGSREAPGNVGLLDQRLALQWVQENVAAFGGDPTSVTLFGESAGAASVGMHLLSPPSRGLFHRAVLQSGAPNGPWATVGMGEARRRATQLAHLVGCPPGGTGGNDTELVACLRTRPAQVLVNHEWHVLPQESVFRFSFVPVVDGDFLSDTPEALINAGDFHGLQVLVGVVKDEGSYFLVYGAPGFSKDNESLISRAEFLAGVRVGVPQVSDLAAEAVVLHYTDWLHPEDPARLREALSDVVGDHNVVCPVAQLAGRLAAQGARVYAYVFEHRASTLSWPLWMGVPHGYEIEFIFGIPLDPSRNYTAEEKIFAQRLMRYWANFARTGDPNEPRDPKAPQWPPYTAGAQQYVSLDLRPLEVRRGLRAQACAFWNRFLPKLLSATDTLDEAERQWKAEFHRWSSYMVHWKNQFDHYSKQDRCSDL

## O=C(O)CN(CCN(CC(=O)O)CC(=O)Nc1ccc(-c2nnc(-c3ccccn3)nn2)nc1)CC(=O)O [2.4, 2,2'-((2-((Carboxymethyl)(2-oxo-2-((6-(6-(pyridin-2-yl)-1,2,4,5-tetrazin-3-yl)pyridin-3-yl)amino)ethyl)amino)ethyl)azanediyl)diacetic acid]
Cyclooxygenase (COX-1)
  % COX-1 inhibition: 53%
[1]
  MTD at 72 h: ≥ 57 µmol/kg
Swiss albino mice; 19 µmol/kg i.v. single dose
  No. of mortality vs. total no. of mice: 0 out of 6
Swiss albino mice; 57 µmol/kg i.v. single dose
  No. of mortality vs. total no. of mice: 0 out of 6
Swiss albino mice; 95 µmol/kg i.v. single dose
  No. of mortality vs. total no. of mice: 4 out of 4
[2]
  % Calcium channel L-type dihydropyridine inhibition: 10%
[3]
  % ACES inhibition: 11%
[4]
  % MAO-B inhibition: 20%

## O=C([O-])CN(CCN(CC(=O)[O-])CC(=O)Nc1ccc(-c2nnc(-c3ccccn3)nn2)nc1)CC(=O)[O-].[Ca+2].[Na+] [2.5, Calcium sodium 2-({2-[bis(carboxylatomethyl)amino]ethyl)[({6-[6-(pyridin-2-yl)-1,2,4,5-tetrazin-3-yl]pyridin-3-yl}carbamoyl)methyl]amino)acetate]
Cyclooxygenase (COX-1)
  % COX-1 inhibition: 18%
Swiss albino mice; 85 µmol/kg i.v. single dose
  No. of mortality vs. total no. of mice: 0 out of 6
Swiss albino mice; 171 µmol/kg i.v. single dose
  No. of mortality vs. total no. of mice: 0 out of 6
Swiss albino mice; 512 µmol/kg i.v. single dose
  No. of mortality vs. total no. of mice: 0 out of 6
[2]
  % Calcium channel L-type dihydropyridine inhibition: 1%
[3]
  % ACES inhibition: -1%
[4]
  % MAO-B inhibition: 9%

## O=C(O)CCOCCOCCOCCC(=O)Nc1ccc(-c2nnc(-c3ccccn3)nn2)nc1 [2.7, 3-(2-(2-(3-Oxo-3-((6-(6-(pyridin-2-yl)-1,2,4,5-tetrazin-3-yl)pyridin-3-yl)amino)propoxy)ethoxy)ethoxy)propanoic acid]
Cyclooxygenase (COX-1)
  % COX-1 inhibition: 37%
Swiss albino mice; 103 µmol/kg i.v. single dose
  No. of mortality vs. total no. of mice: 0 out of 6
Swiss albino mice; 207 µmol/kg i.v. single dose
  No. of mortality vs. total no. of mice: 0 out of 6
Swiss albino mice; 621 µmol/kg i.v. single dose
  No. of mortality vs. total no. of mice: 0 out of 6
[2]
  % Calcium channel L-type dihydropyridine inhibition: -17%
[3]
  % ACES inhibition: 22%
[4]
  % MAO-B inhibition: 38%

## O=C(O)CN(CC(=O)O)CC(=O)Nc1ccc(-c2nnc(-c3ccccn3)nn2)nc1 [2.10, 2,2'-((2-Oxo-2-((6-(6-(pyridin-2-yl)-1,2,4,5-tetrazin-3-yl)pyridin-3-yl)amino)ethyl)azanediyl)diacetic acid]
Cyclooxygenase (COX-1)
  % COX-1 inhibition: 14%
Swiss albino mice; 118 µmol/kg i.v. single dose
  No. of mortality vs. total no. of mice: 0 out of 6
Swiss albino mice; 177 µmol/kg i.v. single dose
  No. of mortality vs. total no. of mice: 0 out of 6
Swiss albino mice; 236 µmol/kg i.v. single dose
  No. of mortality vs. total no. of mice: 0 out of 6
[2]
  % Calcium channel L-type dihydropyridine inhibition: -3%
[3]
  % ACES inhibition: 5%
[4]
  % MAO-B inhibition: 22%

## O=C(O)CN1CCN(CC(=O)O)CCN(CC(=O)NCCOCCOCCOCCOCCOCCOCCOCCOCCOCCOCCOCCNC(=O)CCCC(=O)Nc2ccc(-c3nnc(-c4ccccn4)nn3)nc2)CCN(CC(=O)O)CC1 [compound 2.1, 2,2',2''-(10-(2,40,44-Trioxo-44-((6-(6-(pyridine-2-yl)-1,2,4,5-tetrazin-3-yl)pyridine-3-yl)amino)-6,9,12,15,18,21,24,27,30,33,36-undecaoxa-3,39-diazatetratetracontyl)-1,4,7,10-tetraazacyclododecane-1,4,7-triyl)triacetic acid, reference compound]
Cyclooxygenase (COX-1)
  % COX-1 inhibition: 59%
Cyclooxygenase (COX-1); statement in description
  inhibition of cyclooxygenase (COX-1), in words: strongly inhibits
[1]
  MTD at 72 h: ~39 µmol/kg
Swiss albino mice; 8 µmol/kg i.v. single dose
  No. of mortality vs. total no. of mice: 0 out of 6
Swiss albino mice; 39 µmol/kg i.v. single dose
  No. of mortality vs. total no. of mice: 0 out of 6
Swiss albino mice; 78 µmol/kg i.v. single dose
  No. of mortality vs. total no. of mice: 4 out of 6
[2]
  % Calcium channel L-type dihydropyridine inhibition: 44%
[2]; statement in description
  inhibition of calcium channel L-type, dihydropyridine, in words: strongly inhibits
[3]
  % ACES inhibition: 44%
[3]; statement in description
  inhibition of acetyl cholinesterase (ACES), in words: strongly inhibits
[4]
  % MAO-B inhibition: 36%
[4]; statement in description
  inhibition of monoamine oxidase (MAO-B), in words: strongly inhibits
